Measured values taken from ChEMBL document CHEMBL4602687, “Dual Binding to Orthosteric and Allosteric Sites Enhances the Anticancer Activity of a TRAP1-Targeting Drug” (J Med Chem, 2020).
Where a chain is given by its changes, count along the chain named. Activity calls are given as the source filed them.

Assays:
[1] = molecular target: T1, Heat shock protein 75 kDa, mitochondrial (Homo sapiens) (UniProt Q12931); test: Inhibition of TRAP1 in human PC3 cells assessed as reduction in SIRT3 expression at 5 uM measured after 2 to 12 hrs by Western blot analysis; assay type: cell-based; settings: PC-3
T1 sequence (whole entry): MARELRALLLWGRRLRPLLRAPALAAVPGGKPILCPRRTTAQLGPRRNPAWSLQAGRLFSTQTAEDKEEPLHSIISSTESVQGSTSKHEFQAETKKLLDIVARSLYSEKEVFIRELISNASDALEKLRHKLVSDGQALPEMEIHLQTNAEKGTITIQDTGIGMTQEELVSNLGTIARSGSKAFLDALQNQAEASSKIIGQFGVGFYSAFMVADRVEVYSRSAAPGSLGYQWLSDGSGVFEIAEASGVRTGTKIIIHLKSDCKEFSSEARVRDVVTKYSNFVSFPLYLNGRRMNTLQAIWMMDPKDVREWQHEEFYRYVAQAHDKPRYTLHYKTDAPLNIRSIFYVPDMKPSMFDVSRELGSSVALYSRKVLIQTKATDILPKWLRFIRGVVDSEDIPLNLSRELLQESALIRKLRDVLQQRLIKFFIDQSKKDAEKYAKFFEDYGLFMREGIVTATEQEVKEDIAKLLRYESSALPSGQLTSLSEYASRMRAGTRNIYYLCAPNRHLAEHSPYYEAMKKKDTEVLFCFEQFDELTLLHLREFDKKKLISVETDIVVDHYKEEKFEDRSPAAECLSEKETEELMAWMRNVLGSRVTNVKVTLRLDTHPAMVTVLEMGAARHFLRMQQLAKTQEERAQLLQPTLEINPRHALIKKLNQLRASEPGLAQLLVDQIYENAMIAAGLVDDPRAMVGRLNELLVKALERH

[2] = system: T2, Heat shock protein 75 kDa, mitochondrial (Homo sapiens), Q12931 [E403K]; test: Inhibition of recombinant wild-type human TRAP1 E403K mutant ATPase activity expressed in Escherichia coli BL21 (DE3) up to 20 uM preincubated for 0.5 hrs followed by ATP addition and measured after 3 hrs by PiColorLock Gold reagent based colorimetric assay
T2 sequence (whole entry): T1 sequence (whole entry) with E403K

[3] = molecular target: T1, Heat shock protein 75 kDa, mitochondrial (Homo sapiens); test: Inhibition of TRAP1 in human PC3 cells assessed as increase in reactive oxygen species generation at 10 uM measured after 2 hrs by Mito-SOX probe based flow cytometry; assay type: cell-based; settings: PC-3
[4] = molecular target: T1, Heat shock protein 75 kDa, mitochondrial (Homo sapiens); test: Stimulation of recombinant wild-type human TRAP1 ATPase activity expressed in Escherichia coli BL21 (DE3) at 2 to 5 uM preincubated for 0.5 hrs followed by 2 mM ATP addition and measured after 3 hrs by PiColorLock Gold reagent based colorimetric assay relative to control
[5] = molecular target: T1, Heat shock protein 75 kDa, mitochondrial (Homo sapiens); test: Inhibition of TRAP1 in human PC3 cells assessed as increase in CHOP expression at 5 uM measured after 2 to 12 hrs by Western blot analysis; assay type: cell-based; settings: PC-3
[6] = system: NCI-H460; test: Antitumor activity against human NCI-H460 cells xenografted in nude mouse assessed as induction of tumor cell death by measuring increase in cleaved caspase-9 expression at 5 mg/kg, ip administered daily by Western blot analysis; assay type: functional, organism-based
[7] = molecular target: T1, Heat shock protein 75 kDa, mitochondrial (Homo sapiens); test: Allosteric modulation of recombinant wild-type human TRAP1 ATPase activity expressed in Escherichia coli BL21 (DE3) assessed as increase in substrate Km at 5 uM preincubated for 0.5 hrs followed by varying levels of ATP addition and measured after 3 hrs using PiColorLock Gold reagent by colorimetric assay-based Lineweaver-Burk plot analysis relative to control
[8] = system: T3, Heat shock protein 75 kDa, mitochondrial (Homo sapiens), Q12931 [R114E,E403K]; test: Stimulation of recombinant […] human TRAP1 R114E/E403K mutant ATPase activity expressed in Escherichia coli BL21 (DE3) up to 20 uM preincubated for 0.5 hrs followed by ATP addition and measured after 3 hrs by PiColorLock Gold reagent based colorimetric assay
T3 sequence (whole entry): T1 sequence (whole entry) with R114E, E403K

[9] = system: LN-229; test: Cytotoxicity against human LN229 cells assessed as reduction in cell viability up to 3 uM measured after 24 hrs by MTT assay; assay type: functional, cell-based

Nc1ncnc2c1nc(Sc1cc3c(cc1I)OCO3)n2CCCCCCCCCC[P+](c1ccccc1)(c1ccccc1)c1ccccc1
3: fold change (FC) [7]
active: inhibition [1] | inhibition [2] | inhibition [3] | inhibition [5] | Activity [6] | Activity [8] | Activity [9]
2: fold change (FC) [4]
